System: HepG2
Experiment: Hepatoprotective activity against N-acetyl-p-aminophenol-induced cell injury in human HepG2 cells assessed as cell survival at 10 uM after 48 hrs by MTT assay (reference value: 39.87%)
Format: functional
Conditions: HepG2, 48 h, read-out: Survival

Structure (SMILES)	viability at 10 µM
C/C(=C\Cc1cc(C(=O)O)cc2c1O[C@H](C(C)(C)O)[C@H]2O)CO	53.6%
COc1cc(-c2coc3c([C@@H]4O[C@H](CO)[C@@H](O)[C@H](O)[C@H]4O)c(O)ccc3c2=O)ccc1O	45.2%
C[C@@H]1O[C@@H](Oc2ccc(C(=O)O)cc2)[C@H](O)[C@H](O[C@@H]2O[C@H](CO)[C@@H](O)[C@H](O)[C@H]2O)[C@H]1O	54.7%
COc1cc(C(=O)O)ccc1O[C@@H]1O[C@@H](C)[C@H](O)[C@@H](O[C@@H]2O[C@H](CO)[C@@H](O)[C@H](O)[C@H]2O)[C@H]1O	54.6%
COC(=O)c1cc(OC)c2c(c1-c1c(CO)cc(OC)c3c1OCO3)OCO2 [BICYCLOL]	52.9%
O=c1c(-c2ccc(O)cc2)coc2c([C@@H]3O[C@H](CO)[C@@H](O)[C@H](O)[C@H]3O)c(O)ccc12 [PUERARIN]	41.3%

Source: ChEMBL document CHEMBL3853355, “Six new compounds from Atractylodes lancea and their hepatoprotective activities” (2016)
